Measurements as given in patent US20130331326A1, “METHOD OF INDUCING HEMATOPOIETIC RECONSTRUCTION” (DUKE UNIVERSITY, priority 2011, published 2013).
“Also recorded” adds a separate entry of the source.

Assays:
BM KSL cells = test: BrdU incorporation in BM KSL cells in vivo after 700 cGy TBI; design: species or system mouse; conditions: day +7 following 700 cGy TBI, EGF daily x 7 days, vs saline
Protocol: Cell proliferation was measured in C57B16 mice exposed to 700 cGy TBI and administered 5-bromo-2-deoxyridine (BrdU, BD) in drinking water from the day of irradiation until day +7. BM cells were labeled with anti-cKit PE, anti-scal PE-Cy7, anti-lineage APC, and anti-BrdU FITC. Incorporation of BrdU was analyzed by flow cytometry according to the manufacturer's staining protocol (BD).

[1] = tested on: BM hematopoietic stem and progenitor cells; test: Hematopoietic regeneration in C57B16 mice after 700 cGy TBI (progenitor assays, competitive repopulation); format: in vivo, mouse
Protocol: BM cells were collected into PBS (Cellgro, Manassas, Va.) with 10% fetal bovine serum (Hyclone, Logan, Utah) and 1% penicillin/streptomycin (GIBCO, Grand Island, N.Y.). Viable BM cells were quantified using Trypan Blue Stain (Lonza, Basel, Switzerland) to exclude apoptotic and dead cells. Cells were then incubated with anti-c-kit, anti-Sca-1, anti-lineage cocktail, anti-CD41, anti-CD48, and anti-CD150 antibodies (Biolegend and eBiosciences, San Diego, Calif.; BD, San Jose, Calif.) to measure ckit^+sca-1^+lin^− (KSL) progenitor cells or CD150′CD41^−CD48^−KSL (SLAM/KSL) as previously described (Kiel et al, Cell 121:1109-1121 (2005)). Colony forming cells (CFCs) and CFU-S12 assays were also performed to measure functional hematopoietic stem/progenitor cell content. For CFCs, either whole BM or cultured lineage−cells, or KSL cells were plated onto methylcellulose (StemCell Technologies, Vancouver, BC, Canada), and colonies were scored on day 14. 1×10^5 BM or 2×10^5 cells were collected from donor mice and injected via tail vein into recipient C57B16 mice that had been given 950 cGy TBI. At day +12 post-injection, spleens from recipient mice were harvested and stained with Bouin's fixative solution (Ricca Chemical Company, Arlington, Tex.), and colonies were counted as previously described (Till and MeRadiat. Res. 14:213-222 (1961)). Complete blood counts were performed on a HemaVet 950 (Drew Scientific, Dallas, Tex.).
Competitive repopulation assays were also performed using donor C57B16 mice (CD45.2^+) that had been irradiated with 700 cGy TBI and gavaged daily with 10 μg/G erlotinib (Genentech, San Francisco, Calif.) or 150 μl water beginning on day 0 and continued through day +14. Donor BM cells were injected via tail vein into recipient B6.SJL mice (CD45.1^+) at a dose of 5×10^5 cells with a competing dose of host 1×10^5 BM MNCs. Tie2Cre;Bak1^−/−;Bax^FL/− mice were gavaged daily with 10 μg/G erlotinib or water starting day −3 and given 300 cGy TBI on day 0. Erlotinib administration continued until the timepoint of donor BM cell collection and analysis. Tie2Cre;Bak1^−/−;Bax^FL/− BM cells were injected via tail vein into recipient CD45.1^+ mice at a cell dose of 3×10^5 cells with a competing dose of host 1×10^5 CD45.1^+ cells. Multilineage hematopoietic reconstitution was measured in the PB of recipient mice by flow cytometry at 4, 8, and 12 weeks post-transplant. For survival studies with erlotinib administration, C57B16 mice were exposed to 700 cGy and then given 10 μg/G erlotinib or water starting day −3 and continuing daily through day +14.
Ten micrometer sections were cut using they CryoJane tape system (Instrumedics Inc, Hackensack, N.J., USA). Femurs were stained with hematoxylin and eosin or anti-mouse endothelial cell antibody (MECA-32) as previously described (Salter et al, Blood 113:2104-2107 (2009)) to assess BM cellularity and the BM vasculature after irradiation. Images were obtained using an Axiovert 200 microscope (Carl Zeiss Microscopy, Thornwood, N.Y.) or a Leica SP5 confocal microscope (Leica Microsystems Inc, Buffalo Grove, Ill.). Adobe Photoshop software (version 9.0.2, Adobe Systems, San JoSe, Calif.) was used to quantify positive signal as a measure of spatial distribution in the fields (Lehr et al, J. Histochem. Cytochem. 45:1559-1565 (1997), Lehr et al, J. Histochem. Cytochem. 47:119-126 (1999)).

AKT-S473 = test: Phosphorylation of AKT-S473 in irradiated BM KSL cells; format: cell-based, mouse; conditions: EGF treatment of irradiated BM KSL cells in culture, within 15 minutes, vs TSF alone
Protocol: (§1) Cell apoptosis and necrosis were analyzed by flow cytometry according to manufacturer's protocols with Annexin V-FITC and 7-AAD staining (BD, San Jose, Calif.). […] Cells were fixed and permeabilized with Fix Buffer I and Perm Buffer III (BD), and then stained with mouse anti-phospho-AKT-S473 PE (BD) or isotype control. Cell cycle analysis was performed by flow cytometric analysis modified from previous reports (Jordan et al, Exp. Hematol. 24:1347-1355 (1996), Chute et al, Hum. Gene Ther. 11:2515-2528 (2000), Sungartz et al, Blood 119:1308-1309 (2012)). Briefly, cells were fixed and permeabilized with 0.25% Saponin (Calbiochem, La Jolla, Calif.), 2.5% paraformaldehyde, 2% FBS in 1×PBS, and then labeled with Ki67-FITC and 7-AAD (BD). BM lin^− cells from VavCre;EGFR^+/+ or VavCre;EGER^fl/fl were cultured with TSF or TSF+10 μM erlotinib, or TSF following 300 cGy for 72 hours, and then collected for total cell counts and CFCs analysis.

CD45+MECA- BM cells = test: Annexin+ BM hematopoietic cells in mice after 700 cGy TBI; format: in vivo, mouse; conditions: systemic EGF x 7 days, day +7, vs saline
Protocol: FIGS. 7A-7G. […] (FIG. 7B) Mean percentage of Annexin^+ Tie2Cre;Bak1^−/−;Bax^Fl/−. […] Non-irradiated BM KSL cells reside predominantly in the G0 (white). G1 light gray, G2/S/M=dark gray. *P=0.002 vs TSF for G0 and ̂P=0.002 vs TSF for G2/S/M, respectively (means±SEM, n=3-5/group). […] The majority of non-irradiated cells were in G0 (white). […] The Mann-Whitney test was utilized for all comparisons unless otherwise noted.
as §1

[2] = 700 cGy TBI, EGF 0.5 ug/G IP daily x 7 days, day +7

EGF: epidermal growth factor; recombinant EGF (R&D Systems)
BrdU incorporation in BM KSL cells (BM KSL cells): significantly increased; also recorded: marked increase | increased BM KSL progenitor cells vs saline [1, 2]: 6 fold | increased BM cells vs saline [1, 2]: 2 fold | increased CFCs vs saline [1, 2]: 7 fold | increased CFU-S12 vs saline [1, 2]: 8 fold | BM cellularity ([1]; 700 cGy TBI, EGF daily x 7 days, day +7): preserved BM cellularity; also recorded: largely preserved | BM HSC content by competitive repopulation assay ([1]; 700 cGy TBI, EGF x 7 days, BM at day +7, vs saline): significantly increased | multilineage reconstitution of myeloid cells, B cells and T cells in recipients ([1]; BM from irradiated EGF-treated mice, 12 weeks post-transplant, vs saline): increased multilineage reconstitution | repopulating cell content (donor stem cell engraftment in recipients) ([1]; Example 1, BM at day +7 or day +14 following 700 cGy TBI, EGF vs saline): significantly higher repopulating cell content | recovery of bone marrow stem and progenitor cells ([1]; Example 1, recombinant EGF via intraperitoneal injection into irradiated wild type mice, vs controls): marked acceleration | engraftment in secondary transplant recipients at 12 weeks ([1]; donor BM collected at day +7 following TBI, data not shown): no significant engraftment | donor cell repopulation in secondary transplant recipients at 12 weeks ([1]; donor BM collected at day +14 following TBI from EGF-treated mice, vs saline): significantly increased; also recorded: markedly increased donor cell repopulation | increase in Akt phosphorylation (AKT-S473): 50% | decreased Annexin+ BM hematopoietic cells (CD45+MECA- BM cells): 4 fold
